In brackets after ≈: the same amount, converted by molar mass. Read-outs that look alike come from different tables or passages of the source.

A word on the solubility: it is how much of the substance goes into solution per volume.

Data set [1] can be described thus: Solubility of crystal forms in water and simulated gastric-intestinal fluid. Type of data set: physicochemical. The settings on record: 25° C.; for solubility at 18 h: thermodynamic from solid. Here is the method:
About 2 mg of each compound was respectively placed in several glass vials, and pure water, simulated gastric fluid (SGF), simulated intestinal fluid under fasted status (FaSSIF), and simulated intestinal fluid under fed status (FeSSIF) were respectively added to prepare a final sample concentration of 2 mg/mL. The samples were sonicated to be dispersed evenly and then rotated 360 degree-wise to equilibrate for 18 hours at room temperature (25° C.). After the equilibration, the samples were visually inspected to check whether they were completely dissolved, and then filtrated through […] filter membrane. The resulted filtrate was diluted with suitable solvent for HPLC analysis.

The test system of data set [2] is schistosoma japonicum. Briefly: In vitro culture anti-schistosoma japonicum activity (worm activity inhibition). Type of data set: cell-based. The settings on record: for IC50: spasm or paralysis of schistosoma japonicum considered as active, in vitro culture 37° C., read-out: IC50 ± L95 (median inhibitory concentration, 95% confidence interval). Here is the method: Comparison of anti-schistosoma japonicum activity between the crystal forms of (R)-praziquantel and praziquantel in in vitro culture experiment, which was specifically as follow: […] An aliquot of the drug solution (5-50 μL) was transferred and diluted with culture medium (prepared by Tyrode's solution and calf serum at 9:1, pH 7.4, containing 100 IU/mL penicillin and 100 IU/mL streptomycin) to a desired concentration (0.0001-100 μg/mL). Japanese white rabbits and Kunming hybrid mice were infected with cercariae of schistosoma japonicum for 5-8 weeks. Under aseptic condition, mesenteric vein and liver were perfused with normal saline, and the recovered schistosomes were washed with Tyrode's solution twice and then transferred into culture medium and cultured at 37° C. for use. […] The worm activity and changes on body surface were observed under stereomicroscope and inverted microscope at room temperature. The active levels of worm were defined as below: • ++++ Worm twitching or rolling intensively; • +++ Worm wriggling or paroxysmally trembling frequently; • ++ Worm migrating freely with enterocinesia; • + Movement of worm weakened and enterocinesia disappeared; • ± No movement of worm was observed under stereomicroscope (×30), and slight movement of mouth and ventral suckers were observed under inverted microscope (×250); • − No movement of worm was observed under inverted microscope (×250); • wherein +++ and ++++ refer to worm excitement; ++ refers to normal worm activity; + and ± refers to inhibition of worm activity; worm was considered to death if the result was still negative after observing for 5 min.

For data set [3] the following is noted: rat, in vivo, po, 75 mg/kg. The source says: Investigation on characteristic of the plasma concentrations of (R)-praziquantel crystal form in rats after oral administration, which was specifically as follow: […]
Data set [4] concerns clonorchis sinensis. Briefly: In vivo anti-parasitic activity in SD rats infected with clonorchis sinensis. Here is the method: Evaluation of in vivo anti-parasitic activity of (R)-praziquantel crystal form in SD rats infected with clonorchis sinensis, which was specifically as follow: Each of total 29 SD rats with 200˜300 g of body weight were given with 30 metacercariae of clonorchis sinensis via gavage intragastrically. On Day 35 post infection, fecal smear examination was conducted, and worm eggs of clonorchis sinensis were found in all of the smears which confirmed successful modeling. Subsequently, the rats were randomly divided into (R)-praziquantel group (n=14) and blank control group (n=15). […] Seven days after the end of the treatment, worms are recovered from the bile ducts under sterility condition. The averaged number of recovered worms, mean recovery rate of worms and cure rate after treatment were calculated, and the results are shown in Table 5.

[5] abbreviates: 100 mg/kg gavage twice a day for two days.

Consider `O=C(C1CCCCC1)N1CC(=O)N2CCc3ccccc3C2C1` (racemic) [Praziquantel crystal form, praziquantel], for which the solubility at 18 h in data set [1] (FaSSIF (simulated intestinal fluid, fasted), equilibrated 18 hours, read-out: Average solubility) was 193 µg/mL (≈ 618 µM); in data set [1] (FeSSIF (simulated intestinal fluid, fed), equilibrated 18 hours, read-out: Average solubility), 313 µg/mL (≈ 1000 µM); in data set [1] (SGF (simulated gastric fluid), equilibrated 18 hours, read-out: Average solubility), 192 µg/mL (≈ 615 µM); in data set [1] (Water, equilibrated 18 hours, read-out: Average solubility) it was 199 µg/mL (≈ 637 µM); in data set [1] (water, SGF, FaSSIF and FeSSIF, range over media, read-out: solubility in water and in simulated gastro-intestinal fluid), 190 to 310 µg/mL (≈ 608 to 992 µM). In addition, the “effect on schistosoma japonicum worms” value in data set [2] (in vitro culture) is “induce contraction and paralysis”. Also, the IC50 in data set [2] turned out to be 42 ± 18 nM.

With `O=C(C1CCCCC1)N1CC(=O)N2CCc3ccccc3[C@@H]2C1` [(R)-praziquantel crystal form, (R)-praziquantel], the “area under plasma concentration-time curve” value in data set [3] was determined as 3572 ± 1793 ng·h/mL. For the same compound, the peak plasma concentration in data set [3] stood at 3132 ± 1440 ng/mL. Also, the “time to reach peak plasma concentration” value in data set [3] was determined as 15 min. In data set [4] (setting [5]), this compound registered a Cure rate of 100%. The “Mean recovery rate of worms” value in data set [4] (setting [5]) came out at 0%. The “No. of Cured animal” value in data set [4] (100 mg/kg gavage twice a day for two days, 14 animals, worms recovered 7 days after treatment) was found to be 14. In data set [4] (100 mg/kg gavage twice a day for two days, worms from bile ducts), the “No. of Average of recovered worm, X ± SD” value is 0. Also, the “worm body in rat feces” value in data set [4] (treatment group) is reported as “no worm body found”. Also, the Average solubility is 302 µg/mL in data set [1] (FaSSIF (simulated intestinal fluid, fasted), equilibrated 18 hours); 433 µg/mL in data set [1] (FeSSIF (simulated intestinal fluid, fed), equilibrated 18 hours); 303 µg/mL in data set [1] (SGF (simulated gastric fluid), equilibrated 18 hours); 305 µg/mL in data set [1] (Water, equilibrated 18 hours). For the same compound, the “effect on schistosoma japonicum worms” value in data set [2] (in vitro culture) is “induce contraction and paralysis”. Moreover, the “IC50 relative to that of praziquantel crystal form” value in data set [2] (in vitro culture, P<0.01) is recorded as “⅕”. The IC50 in data set [2] is 8 ± 4 nM.

(Values after patent US9657017B2, “Crystal form of (R)-praziquantel and preparation method and application thereof” (TONGLI BIOMEDICAL CO., LTD., priority 2013, dated 2017).)
